Source: publication PMC5983823, “Screening of Natural Product Derivatives Identifies Two Structurally Related Flavonoids as Potent Quorum Sensing Inhibitors against Gram-Negative Bacteria” (International Journal of Molecular Sciences, 2018)

Legend:
[1] = system: Staphylococcus aureus biofilms; set-up: method as in PMID 24071942; details: cited from earlier work
C. violaceum ATCC 31532 [2] = experiment: Violacein extraction assay (QS-mediated violacein production); assay type: cell-based, Chromobacterium violaceum; details: Chromobacterium violaceum, ATCC31532, 24 h, read-out: Inhibition-% of violacein production
Protocol: (§1) The initial screening of compound library was conducted using two strains of C. violaceum as model bacterium, and two assays (violacein extraction and resazurin staining) in parallel as recently optimized in [26]. For the screening assays, overnight cultures of C. violaceum were diluted in LB broth supplemented with yeast extract (LBY) (0.1% w/v, Sigma Aldrich, St. Louis, MO, USA). Culture of C. violaceum CV026 was further supplemented with 0.5 µM N-(β-ketocaproyl)-L-Homoserine lactone (3-O-C6-(L)-HSL, Cayman chemicals, Ann Arbor, MI, USA) to induce the violacein production. Bacteria (10^6 CFU/mL) was exposed to compounds (400 µM) in a total volume of 200 µL in 96-microtiter well plates (Nunc, Roskilde, Denmark), and incubated at 27 °C, with shaking at 200 rpm for 24 h. DMSO was added in untreated control wells and bacteria-free wells with only LBY were included controls. Additionally, autoinducer-free wells containing only bacteria were included in C. violaceum CV026 plates. Plates were prepared in duplicates. Quercetin dihydrate (Carl Roth GmbH, Karlsruhe, Germany) at 400 µM was used as positive control in violacein extraction assay, and azithromycin (Cayman chemicals, Ann Arbor, MI, USA) at 10 µM in viability assay. Both control compounds were prepared in DMSO. DMSO concentration was 2.5% throughout the experiments.
(§2) After incubation period of 24 h, plates were centrifuged (Allegra™ X-12R Benchtop centrifuge, Beckman Coulter Inc., Fullerton, CA, USA) at 3000 rpm for 10 min to precipitate the violacein. Supernatants were discarded from the wells by pipetting, and pellets were re-suspended in 200 μL of 96% ethanol by scraping and mixing followed by centrifugation (3000 rpm, 10 min). Thereafter, 100 μL of supernatants were transferred to sterile 96-microtiter well plates, and violacein was quantified by reading the optical density at 595 nm using Varioskan Flash. Inhibition of violacein production was expressed as inhibition percentages of the untreated biofilms (Equation (1)):Inhibition-% = [(untreated control OD595 − sample OD595)/(untreated control OD595 − media control OD595)] × 100%(1) in which untreated control = C. violaceum + DMSO, media control = LBY, and sample = C. violaceum treated with a compound. Later on, violacein extraction assay was also utilized for the determination of half inhibitory concentrations of the compounds.

C. violaceum CV026 = experiment: Violacein extraction assay (QS-mediated violacein production), mutant strain with exogenous autoinducer; assay type: cell-based, Chromobacterium violaceum; details: Chromobacterium violaceum, CV026, 24 h, read-out: Inhibition-% of violacein production
Protocol: as §1, §2

C. violaceum = system: C. violaceum; set-up: method as in PMID 27626397; details: cited from earlier work
C. violaceum ATCC 31532 [3] = experiment: Violacein extraction assay (QS-mediated violacein production); assay type: cell-based; details: Chromobacterium violaceum, ATCC31532, read-out: Inhibition-% of violacein production
cancer cell lines = system: cancer cell lines; set-up: method as in ref 56 = [56]; 56. National Center for Biotechnology Information PubChem BioAssay Database Available online: https://pubchem.ncbi.nlm.nih.gov/bioassay/924 (accessed on 28 March 2018); details: PubChem Bioassay database ref 56; cited from earlier work

For `O=c1cc(-c2ccccc2)oc2cc(O)c(O)cc12` [Compound 916, 6,7-dihydroxy-2-phenylchromen-4-one], the “Anti-biofilm activity against S. aureus” value [1] is given as “preventing biofilm formation and by eradicating pre-formed biofilms”, the inhibition at 400 µM (C. violaceum ATCC 31532 [2]) is given as 102% and the inhibition at 400 µM (C. violaceum CV026) is given as 95.7%. For the same molecule, the “Anti-QS activity class in earlier screening” value (C. violaceum) was “moderately active”, the inhibition at 40 µM (C. violaceum ATCC 31532 [3]) was 35.8 ± 1.1% and the Anti-cancer activity (cancer cell lines) was “inhibition of cancer cell lines”.
